Assay results reported in patent publication US20250084091A1, “INHIBITORS OF SARS-COV-2” (The Texas A&M University System, priority 2021, published 2025).
Where two headings read alike, the source gives them in different places.

Tests used:
[1] = target: SARS-CoV-2 main protease (Mpro) (Severe acute respiratory syndrome coronavirus 2, UniProt P0DTD1); assay: biochemical
[2] = tested on: SARS-CoV-2 (strain USA-WA1/2020); assay: microbe, parasite or virus in culture; type: cell-based
HeLa-ACE2 cells = assay: cells; type: cell-based; details: Table 2, total cell count in infected plates
[3] = Uninfected host cell cytotoxicity counter screen; type: cell-based; details: human
Protocol: Uninfected host cell cytotoxicity counter screen: HeLa-ACE2 cells were maintained as described for the infection assay and seeded in the assay-ready plates at 400 cells/well. Plates were incubated for 24 hours at 37° C. 5% CO2. To assess cell viability, the Image-iT DEAD green reagent was used according to manufacturer instructions. Cells were fixed with 4% paraformaldehyde, and counterstained with DAPI. Fixed cells are imaged as described above.
Viral replication data analysis: Data from the primary screen and the host cell cytotoxicity screen are normalized to neutral (DMSO) […] inhibitor controls (2.5 μM Remdesivir for antiviral effect and 10 μM puromycin for infected host cell toxicity). For the uninfected host cell cytotoxicity counter-screen 40 μM puromycin is used as the positive control. Concentration response experiments will be tested in triplicate.

[4] = Severe acute respiratory syndrome coronavirus 2, Table 2, SARS-CoV-2 infected HeLa-ACE2 cells, read-out: CoV-2 HeLa EC50
[5] = Table 3, select example compounds against mpro, read-out: Enzyme IC50
[6] = Severe acute respiratory syndrome coronavirus 2, HeLa, Table 3, read-out: CoV-2 HeLa EC50
[7] = Severe acute respiratory syndrome coronavirus 2, HeLa-ACE2, read-out: CoV-2 HeLa EC50, Table 2, SARS-CoV-2 infected HeLa-ACE2 cells
[8] = Table 2, uninfected cells, 24 hours, read-out: Uninfected HeLa-ACE2 CC50

SMILES: O=C(c1cncc(F)c1)N1CCN(C(c2ccccc2)c2cccnc2)CC1 (stereo not shown) [MKP-1192, 1-(5-fluoropyridine-3-carbonyl)-4-[phenyl(pyridin-3-yl)methyl]piperazine]
- IC50 ([1]; Table 2, read-out: Enzyme IC50): 1930 nM
- EC50 [2, 4]: 4830 nM
- EC50 (HeLa-ACE2 cells): > 9610 nM
- CC50 at 24 h [3]: > 39800 nM

SMILES: Cc1cncc(C(=O)N2CCC(=C3c4ccccc4CS(=O)(=O)c4ccccc43)CC2)c1 [NZ-801, [4-(5,5-dioxo-6H-benzo[c][1]benzothiepin-11-ylidene)-1-piperidyl]-(5-methyl-3-pyridyl)methanone]
- IC50 ([1]; Table 2, read-out: Enzyme IC50): 56 nM
- IC50 [1, 5]: 12 nM
- EC50 [2, 6]: 42 nM
- EC50 [2, 4]: 42 nM
- EC50 (HeLa-ACE2 cells): 81 nM
- CC50 at 24 h [3]: > 39800 nM

SMILES: O=C(c1cncc(Cl)c1)N1CCN(C2c3ccccc3CCc3ccccc32)CC1 [ZS-317, (5-chloro-3-pyridyl)-[4-(2-tricyclo[9.4.0.03,8]pentadeca-1(11),3(8),4,6,12,14-hexaenyl)piperazin-1-yl]methanone]
- IC50 ([1]; Table 2, read-out: Enzyme IC50): 180 nM
- EC50 [2, 4]: 900 nM
- EC50 (HeLa-ACE2 cells): > 9610 nM
- CC50 at 24 h [3]: > 39800 nM

SMILES: O=C(c1cncc(Cl)c1)N1CCC(C(O)(c2ccccc2)c2ccccc2)CC1 [NZ-779, [1-(5-chloropyridine-3-carbonyl)piperidin-4-yl]diphenylmethanol]
- IC50 ([1]; Table 2, read-out: Enzyme IC50): 370 nM
- EC50 [2, 4]: 710 nM
- EC50 (HeLa-ACE2 cells): > 9610 nM
- CC50 at 24 h [3]: > 39800 nM

SMILES: Cc1cc(C(=O)N2CCC(C(O)(c3ccccc3)c3ccccc3)CC2)c[n+]([O-])c1 [NZ-792, [4-[hydroxy(diphenyl)methyl]-1-piperidyl]-(5-methyl-1-oxo-3-pyridyl)methanone]
- IC50 ([1]; Table 2, read-out: Enzyme IC50): > 10000 nM
- EC50 [2, 7]: > 9610 nM
- EC50 (HeLa-ACE2 cells): > 9610 nM
- CC50 at 24 h [3]: > 39800 nM

SMILES: O=C(c1cncc(F)c1)N1CCN(C(c2ccccc2)c2ccccc2)CC1 [AA-592, (4-benzhydrylpiperazin-1-yl)(5-fluoropyridin-3-yl)methanone]
- IC50 ([1]; Table 2, read-out: Enzyme IC50): 970 nM
- EC50 [2, 4]: 2720 nM
- EC50 (HeLa-ACE2 cells): > 9610 nM
- CC50 at 24 h [3]: > 39800 nM

SMILES: O=C(c1cccnc1)N1CCC(=C(c2ccccc2)c2ccccc2)CC1 [NZ-772, 3-[4-(diphenylmethylidene)piperidine-1-carbonyl]pyridine]
- IC50 ([1]; Table 2, read-out: Enzyme IC50): 320 nM
- EC50 [2, 4]: 1010 nM
- EC50 (HeLa-ACE2 cells): > 9610 nM
- CC50 at 24 h [3]: > 39800 nM

SMILES: Cc1cncc(C(=O)N2CCN(C(c3ccccc3)c3ccccc3F)CC2)c1 (stereo not shown) [MKP-1287, 1-[(2-fluorophenyl)(phenyl)methyl]-4-(5-methylpyridine-3-carbonyl)piperazine]
- IC50 ([1]; Table 2, read-out: Enzyme IC50): 66 nM
- EC50 [2, 4]: 599 nM
- EC50 (HeLa-ACE2 cells): 810 nM
- CC50 at 24 h [3]: > 39800 nM

SMILES: Cc1cncc(C(=O)N2CCN(C(c3ccccc3)c3ccc(F)cc3)CC2)c1 (stereo not shown) [AA-620, (4-((4-fluorophenyl)(phenyl)methyl)piperazin-1-yl)(5-methylpyridin-3-yl)methanone]
- IC50 ([1]; Table 2, read-out: Enzyme IC50): 260 nM
- EC50 [2, 4]: 717 nM
- EC50 (HeLa-ACE2 cells): 841 nM
- CC50 at 24 h [3]: > 39800 nM

SMILES: O=C(c1cncc(Cl)c1)N1CCN(C(c2ccccc2)c2ccccc2)CC1 [AA-591, (4-benzhydrylpiperazin-1-yl)(5-chloropyridin-3-yl)methanone]
- IC50 ([1]; Table 2, read-out: Enzyme IC50): 300 nM
- EC50 [2, 4]: 890 nM
- EC50 (HeLa-ACE2 cells): > 9610 nM
- CC50 at 24 h [3]: > 39800 nM

SMILES: CC(=O)Nc1cncc(C(=O)N2CCN(C(c3ccccc3)c3ccccc3)CC2)c1 [AA-624, N-(5-(4-benzhydrylpiperazine-1-carbonyl)pyridin-3-yl)acetamide]
- IC50 ([1]; Table 2, read-out: Enzyme IC50): 890 nM
- EC50 [2, 4]: 2620 nM
- EC50 (HeLa-ACE2 cells): > 9610 nM
- CC50 at 24 h [3]: > 39800 nM

SMILES: O=S1(=O)Cc2ccccc2C(N2CCC(C(O)c3cccnc3)CC2)c2ccccc21 (stereo not shown) [NZ-806, [1-(5,5-dioxo-6,11-dihydrobenzo[c][1]benzothiepin-11-yl)-4-piperidyl]-(3-pyridyl)methanol]
- IC50 ([1]; Table 2, read-out: Enzyme IC50): 18900 nM
- EC50 [2, 7]: > 9610 nM
- EC50 (HeLa-ACE2 cells): > 9610 nM
- CC50 at 24 h [3]: > 39800 nM

SMILES: O=C(c1cnccn1)N1CCN(C(c2ccccc2)c2ccccc2)CC1 [AA-579, (4-benzhydrylpiperazin-1-yl)(pyrazin-2-yl)methanone]
- IC50 ([1]; Table 2, read-out: Enzyme IC50): 7700 nM
- EC50 [2, 7]: > 9610 nM
- EC50 (HeLa-ACE2 cells): > 9610 nM
- CC50 at 24 h [3]: > 39800 nM

SMILES: O=C(c1cncc2[nH]ccc12)N1CCC(=C2c3ccccc3CS(=O)(=O)c3ccccc32)CC1 [NZ-805, [4-(5,5-dioxo-6H-benzo[c][1]benzothiepin-11-ylidene)-1-piperidyl]-(1H-pyrrolo[2,3-c]pyridin-4-yl)methanone]
- IC50 ([1]; Table 2, read-out: Enzyme IC50): 48 nM
- IC50 [1, 5]: 14 nM
- EC50 [2, 6]: 58 nM
- EC50 [2, 4]: 58 nM
- EC50 (HeLa-ACE2 cells): 64 nM
- CC50 at 24 h [3]: > 39800 nM

SMILES: Cc1c(Br)cncc1C(=O)N1CCN(C2c3ccccc3CCc3ccccc32)CC1 [ZS-346, (5-bromo-4-methyl-3-pyridyl)-[4-(2-tricyclo[9.4.0.03,8]pentadeca-1(11),3(8),4,6,12,14-hexaenyl)piperazin-1-yl]methanone]
- IC50 ([1]; Table 2, read-out: Enzyme IC50): 270 nM
- EC50 [2, 4]: 1070 nM
- EC50 (HeLa-ACE2 cells): 2040 nM
- CC50 at 24 h [3]: > 39800 nM

SMILES: Cc1cncc(C(=O)N2CCN(C(c3ccccc3)c3ccc(S(C)(=O)=O)cc3)CC2)c1 (stereo not shown) [NZ-799, 1-[(4-methanesulfonylphenyl)(phenyl)methyl]-4-(5-methylpyridine-3-carbonyl)piperazine]
- IC50 ([1]; Table 2, read-out: Enzyme IC50): 1240 nM
- EC50 [2, 4]: 2540 nM
- EC50 (HeLa-ACE2 cells): 6580 nM
- CC50 at 24 h [3]: > 39800 nM

SMILES: O=C(c1cncc(F)c1)N1CCC(C(O)(c2ccccc2)c2ccccc2)CC1 [NZ-778, [1-(5-fluoropyridine-3-carbonyl)piperidin-4-yl]diphenylmethanol]
- IC50 ([1]; Table 2, read-out: Enzyme IC50): 1700 nM
- EC50 [2, 4]: 3630 nM
- EC50 (HeLa-ACE2 cells): > 9610 nM
- CC50 at 24 h [3]: > 39800 nM

SMILES: O=C(c1cnccc1Cl)N1CCN(C(c2ccccc2)c2ccccc2)CC1 [AA-605, (4-benzhydrylpiperazin-1-yl)(4-chloropyridin-3-yl)methanone]
- IC50 ([1]; Table 2, read-out: Enzyme IC50): 1300 nM
- EC50 [2, 4]: 3030 nM
- EC50 (HeLa-ACE2 cells): 7160 nM
- CC50 at 24 h [3]: > 39800 nM

SMILES: CC(=O)Nc1cccc(C(c2ccccc2)N2C3CCC2CN(C(=O)c2cncc(C)c2)C3)c1 (stereo not shown) [AA-627, N-(3-((3-(5-methylnicotinoyl)-3,8-diazabicyclo[3.2.1]octan-8-yl)(phenyl)methyl)phenyl)acetamide]
- IC50 ([1]; Enzyme IC50, Table 2): 48 nM
- EC50 [2, 7]: 3000 nM
- EC50 (HeLa-ACE2 cells): > 9610 nM
- CC50 at 24 h [3, 8]: > 39800 nM

SMILES: O=C(c1cncc(Br)c1)N1CCC(C(O)(c2ccccc2)c2ccccc2)CC1 [NZ-770, [1-(5-bromopyridine-3-carbonyl)piperidin-4-yl]diphenylmethanol]
- IC50 ([1]; Table 2, read-out: Enzyme IC50): 380 nM
- EC50 [2, 4]: 510 nM
- EC50 (HeLa-ACE2 cells): > 9610 nM
- CC50 at 24 h [3]: > 39800 nM

SMILES: Cc1cnc(F)c(C(=O)N2CC3CCC(C2)N3C(c2ccccc2)c2ccccc2)c1 [AA-638, (8-benzhydryl-3,8-diazabicyclo[3.2.1]octan-3-yl)(2-fluoro-5-methylpyridin-3-yl)methanone]
- IC50 ([1]; Enzyme IC50, Table 2): 220 nM
- EC50 [2, 7]: 893 nM
- EC50 (HeLa-ACE2 cells): 711 nM
- CC50 at 24 h [3, 8]: > 39800 nM

SMILES: O=C(c1cncc2cc[nH]c12)N1CCC(=C2c3ccccc3CS(=O)(=O)c3ccccc32)CC1 [NZ-804, [4-(5,5-dioxo-6H-benzo[c][1]benzothiepin-11-ylidene)-1-piperidyl]-(1H-pyrrolo[3,2-c]pyridin-7-yl)methanone]
- IC50 ([1]; Table 2, read-out: Enzyme IC50): 30 nM
- IC50 [1, 5]: 9 nM
- EC50 [2, 6]: 15 nM
- EC50 [2, 4]: 15 nM
- EC50 (HeLa-ACE2 cells): 162 nM
- CC50 at 24 h [3]: > 39800 nM

SMILES: NC(=O)c1cncc(C(=O)N2CCN(C3c4ccccc4CCc4ccccc43)CC2)c1 [ZS-347, 5-[4-(2-tricyclo[9.4.0.03,8]pentadeca-1(11),3(8),4,6,12,14-hexaenyl)piperazine-1-carbonyl]pyridine-3-carboxamide]
- IC50 ([1]; Table 2, read-out: Enzyme IC50): 1700 nM
- EC50 [2, 4]: 4250 nM
- EC50 (HeLa-ACE2 cells): > 9610 nM
- CC50 at 24 h [3]: > 39800 nM

SMILES: O=C(c1cc[nH]c(=O)c1)N1CCN(C(c2ccccc2)c2ccccc2)CC1 [NZ-769, 4-[4-(diphenylmethyl)piperazine-1-carbonyl]-1,2-dihydropyridin-2-one]
- IC50 ([1]; Table 2, read-out: Enzyme IC50): 11300 nM
- EC50 [2, 4]: 8050 nM
- EC50 (HeLa-ACE2 cells): > 9610 nM
- CC50 at 24 h [3]: > 39800 nM

SMILES: Cc1cncc(C(=O)N2CCN(C(c3ccccc3)c3cc(F)cc(F)c3)CC2)c1 (stereo not shown) [MKP-1280, 1-[(3,5-difluorophenyl)(phenyl)methyl]-4-(5-methylpyridine-3-carbonyl)piperazine]
- IC50 ([1]; Table 2, read-out: Enzyme IC50): 61 nM
- EC50 [2, 4]: 158 nM
- EC50 (HeLa-ACE2 cells): 261 nM
- CC50 at 24 h [3]: > 39800 nM

SMILES: CC(=O)Nc1cncc(C(=O)N2CC3CCC(C2)N3C(c2ccccc2)c2ccccc2)c1 [AA-633, N-(5-(8-benzhydryl-3,8-diazabicyclo[3.2.1]octane-3-carbonyl)pyridin-3-yl)acetamide]
- IC50 ([1]; Enzyme IC50, Table 2): 640 nM
- EC50 [2, 7]: 1580 nM
- EC50 (HeLa-ACE2 cells): 2770 nM
- CC50 at 24 h [3, 8]: > 39800 nM

SMILES: O=C(c1cccnc1)N1CCN(C(c2ccc(F)cc2)c2ccc(F)cc2)CC1 [AA-598, (4-(bis(4-fluorophenyl)methyl)piperazin-1-yl)(yridine-3-yl)methanone]
- IC50 ([1]; Table 2, read-out: Enzyme IC50): 1900 nM
- EC50 [2, 7]: > 9610 nM
- EC50 (HeLa-ACE2 cells): > 9610 nM
- CC50 at 24 h [3]: > 39800 nM

SMILES: Cc1cncc(C(=O)N2CCC(N(c3ccccc3)c3ccccc3)CC2)c1 [AA-613, (4-(diphenylamino)piperidin-1-yl)(5-methylpyridin-3-yl)methanone]
- IC50 ([1]; Table 2, read-out: Enzyme IC50): 820 nM
- EC50 [2, 7]: > 9610 nM
- EC50 (HeLa-ACE2 cells): > 9610 nM
- CC50 at 24 h [3]: > 39800 nM
